Results reported in patent US20140179780A1, “PHARMACEUTICAL COMPOSITION CONTAINING OLEANOLIC ACID ACETATE AS AN ACTIVE INGREDIENT FOR PREVENTING OR TREATING TLR- OR IL-6-MEDIATED DISEASES” (Korea Research Institute of Bioscience and Biotechnology, priority 2011, published 2014).
Several values for one entry are separate records, joined by “and”; a condition that tells them apart may be missing. Equal entries are not always repeated. Where two headings read alike, the source gives them in different places.

Columns and labels:
[1] = system: poly(I)-induced NFkB/AP-1 dependent SEAP activity (TLR7 signaling pathway); experiment: Poly(I)-induced NFkB/AP-1-dependent SEAP activity in THP1-Blue-CD14 cells; assay type: cell-based, Human; settings: for Effect on poly(I)-induced SEAP activity (in words): THP-1-blue cells
Experimental: (§1) THP1-Blue-CD14 cells were seeded at a density of 2×10^5 cells/100 μl in a 96-well plate, and cultured at 37° C. for 3 hours.

[2] = system: IL-6-induced STAT3 transcriptional activation; experiment: IL-6 reactive STAT3 reporter gene (luciferase) assay in Hep3B cells; assay type: cell-based; settings: for IC50 / Inhibition (%) of STAT3 luciferase activity: IL-6 10 ng/ml; for IC50: read-out: IC50, inhibition of IL-6-induced STAT3 luciferase activity; for Effect on STAT3 luciferase activity (in words): IL-6
Experimental: pStat3-Luc and pcDNA3.1(+) (Clontech laboratories, Palo Alto, Calif.) were transfected into Hep3B cells (ATCC HB-8064) using lipofectamine plus (Invitrogen, Carlsbad, Calif., USA) at the same time. 2 days later, the cells were treated with hygromycin (100 μg/ml) to obtain clones stably expressing luciferase. Luciferase analysis was performed to examine whether luciferase is stably expressed in the clones.
The transfected cells in the clones obtained in Example 5-1 were cultured in DMEM (GIBCO 119950965) under serum starvation, and the samples were treated for 1 hour as follows. 10 ng/ml IL-6 (R&D system, USA) was added thereto, followed by cultivation for 12 hours.
The cultured cells were washed with PBS and 50 μl of lysis buffer (luciferase assay system, promega, USA) was added thereto, followed by stirring for 20 minutes. 30-100 μl of luciferase substrate (luciferase assay system, promega, USA) was added to measure […] using a luminometer (EG&G BERTHOLD, USA) within 5 minutes (Tables 5 and 6).
In detail, the inhibitory effects of oleanolic acid or oleanolic acid acetate on STAT3 luciferase activity was measured in the same manner as in Example 5-2, except that oleanolic acid or oleanolic acid acetate was treated as a sample in an amount of 0.1, 1, 3, 6 or 10 μM, respectively and compared with each other (FIG. 14).

[3] = system: poly(I:C)-induced NFkB/AP-1 dependent SEAP activity (TLR3 signaling pathway); experiment: Poly(I:C)-induced NFkB/AP-1-dependent SEAP activity in THP1-Blue-CD14 cells; assay type: cell-based, Human; settings: for Effect on poly(I:C)-induced SEAP activity (in words): THP-1-blue cells
Experimental: as §1

STAT3 phosphorylation = experiment: IL-6-induced STAT3 phosphorylation in Hep3B cells (Western blot); assay type: cell-based; settings: IL-6 20 ng/ml 20 minutes, FIGS. 8a, 8b
Experimental: Hep3B cells were seeded in a 6-well plate at a density of 5×10^5 per well, and cultured to a confluency of 80% in a culture plate. Then, the medium was replaced with serum-free medium and further cultured for 12 hours, and the samples were treated for 60 minutes as follows.
Next, 20 ng/ml of IL-6 was treated, and reacted for 20 minutes, and 40 μl of lysis buffer (pH 8, 20 mM Tris-HCl, 137 mM NaCl, 10% glycerol, 1% Triton X-100, 1 mM Na3VO4, 2 mM EDTA, 1 mM APMSF, 20 μM leupeptin, 20 μg/ml aprotonin; Sigma, USA) was used for cell lysis. Centrifugation (13000 g, 15 minutes) was performed to obtain supernatants containing proteins. Protein concentrations were quantified using a DC protein assay kit (Bio-Rad, USA), and proteins were loaded in a 4˜12% SDS polyacrylamide gel (SDS-PAGE) and electrophoresis was performed at 175 mA for 2 hours. After electrophoresis, the proteins of the gel were transferred onto a PVDF membrane (Westran S, pore size […]; Whatman, USA) at 35 V for 90 minutes. The transferred membrane was blocked with Tris-buffer (T-TBS; 50 mM Tri-HCl, pH 7.6, 150 mM NaCl, 0.2% Tween-20, 5% skim milk; Sigma, USA) at room temperature for 1 hour, and washed with T-TBS five times. The membrane was treated with polyclonal antibody of phospho-STAT3 (1:1000 dilution) as a primary antibody at 4° C. 12 hours. […]

[4] = system: osteoclast differentiation from bone marrow macrophages; experiment: RNAKL-induced osteoclast differentiation of bone marrow macrophages (TRAP staining); assay type: cell-based, mouse; settings: for Osteoclast differentiation (number and size of TRAP-positive osteoclasts): M-CSF 30 ng/ml, RNAKL 50 ng/ml, 4 days
Experimental: Femurs and tibia were removed from 5-week-old mice, and the bone cavity was washed using a 1 cc syringe to obtain bone marrow cells. The isolated bone marrow cells were cultured in α-MEM (α-minimum essential medium) containing 10% FBS, antibiotic, M-CSF (30 ng/ml) for 3 days. 3 days later, the adherent cells were used as bone marrow macrophage (BMM). The bone marrow macrophages were cultured by addition of M-CSF (30 ng/ml) and an osteoclast differentiation factor RNAKL (Receptor activator of nuclear factor kappa-B ligand) (50 ng/ml) and treated with the adzuki bean extract and oleanolic acid acetate at each concentration. 4 days later, the cultured cells were stained with a TRAP solution (Sigma Aldrich, USA), and red stained cells were determined as differentiated osteoclasts.

[5] = Homo sapiens, read-out: Inhibition (%) of poly(I)-induced SEAP activity
[6] = Homo sapiens, read-out: Inhibition (%) of poly(I:C)-induced SEAP activity
[7] = Homo sapiens, sample 30 μM, poly(I) 50 μg/ml, read-out: Inhibition (%) of poly(I)-induced SEAP activity
[8] = Homo sapiens, sample 60 μM, poly(I) 50 μg/ml, read-out: Inhibition (%) of poly(I)-induced SEAP activity
[9] = Homo sapiens, sample 30 μM, poly(I:C) 100 μg/ml, read-out: Inhibition (%) of poly(I:C)-induced SEAP activity
[10] = Homo sapiens, sample 60 μM, poly(I:C) 100 μg/ml, read-out: Inhibition (%) of poly(I:C)-induced SEAP activity

Q: With `CC[C@H](/C=C/[C@@H](C)[C@H]1CC[C@H]2[C@@H]3CC=C4C[C@@H](O)CC[C@]4(C)[C@H]3CC[C@]12C)C(C)C` [Stigmasterol, (3S,8S,9S,10R,13R,14S,17R)-17-[(E,2R,5S)-5-ethyl-6-methylhept-3-en-2-yl]-10,13-dimethyl-2,3,4,7,8,9,11,12,14,15,16,17-dodecahydro-1H-cyclopenta[a]phenanthren-3-ol] as the compound, how does the inhibition at 30 µM [1, 5] read?
A: The inhibition at 30 µM was less than 0%.

Q: What about the inhibition at 60 µM [1, 5] of the same compound?
A: Its inhibition at 60 µM is 2.63%.

Q: What about the inhibition at 100 µM [1, 5] of the same compound?
A: Its inhibition at 100 µM is 1.42%.

Q: And the “Effect on poly(I)-induced SEAP activity (in words)” value [1]?
A: The value was “did not show the inhibitory activity”.

Q: And the IC50 ([2]; Homo sapiens)?
A: Its IC50 is 90000 nM.

Q: And the “Effect on STAT3 luciferase activity (in words)” value [2]?
A: Its value is “inhibited STAT3 luciferase activity in a concentration dependent manner”.

Q: And the “Inhibition (%) of STAT3 luciferase activity” value ([2]; sample 60 μM)?
A: The value was 29.4%.

Q: What about the “Inhibition (%) of STAT3 luciferase activity” value ([2]; sample 100 μM) of the same compound?
A: The value was 58.4%.

Q: And the inhibition at 30 µM [3, 6]?
A: The inhibition at 30 µM was 8.71%.

Q: And the inhibition at 60 µM [3, 6]?
A: Its inhibition at 60 µM is 4.92%.

Q: What about the inhibition at 100 µM [3, 6] of the same compound?
A: The inhibition at 100 µM was less than 0%.

Q: And the “Effect on poly(I:C)-induced SEAP activity (in words)” value [3]?
A: The value was “did not show the inhibitory activity”.

Q: With `CC1(C)CC[C@]2(C(=O)O)CC[C@]3(C)C(=CC[C@@H]4[C@@]5(C)CC[C@H](O)C(C)(C)[C@@H]5CC[C@]43C)[C@@H]2C1` [oleanolic acid] as the compound, how does the “Inhibition (%) of STAT3 luciferase activity” value ([2]; sample 10 μM) read?
A: The value was “approximately 14%”.

Q: Which results are given for `OC[C@H]1O[C@@H](Oc2cc(O)c3c(c2)O[C@H](c2ccc(O)c(O)c2)[C@@H](O)C3)[C@H](O)[C@@H](O)[C@@H]1O` [Catechin-7-glucopyranoside, catechin-7-glucopyranoside, reference compound]?
A: Effect on poly(I)-induced SEAP activity (in words) [1]: did not affect; Effect on STAT3 luciferase activity (in words) [2]: did not show the inhibitory effect; Inhibition (%) of STAT3 luciferase activity ([2]; sample 30 μM): 8.3%; Inhibition (%) of STAT3 luciferase activity ([2]; sample 60 μM): 15.9%; Inhibition (%) of STAT3 luciferase activity ([2]; sample 100 μM): 0.4%; Effect on poly(I:C)-induced SEAP activity (in words) [3]: did not affect; Inhibition (%) of poly(I:C)-induced SEAP activity ([3]; sample 30 μM, poly(I:C) 100 μg/ml): 13.19%; Inhibition (%) of poly(I:C)-induced SEAP activity ([3]; sample 60 μM, poly(I:C) 100 μg/ml): 11.16%

Q: Which inhibition at 10 µM [1, 5] does the source give for `CC(=O)O[C@H]1CC[C@@]2(C)C(CC[C@]3(C)[C@@H]2CC=C2[C@H]4CC(C)(C)CC[C@]4(C(=O)O)CC[C@]23C)C1(C)C` (stereo partly drawn) [Oleanolic acid acetate, 4aS,6aR,6aS,6bR,8aR,10S,12aR,14bS)-10-hydroxy-2,2,6a,6b,9,9,12a-heptamethyl-1,3,4,5,6,6a,7,8,8a,10,11,12,13,14b-tetradecahydropicene-4a-carboxylic acid acetate] here?
A: The inhibition at 10 µM was 2.02%.

Q: And the inhibition at 30 µM [1, 5]?
A: The inhibition at 30 µM was 43.9%.

Q: What about the inhibition at 60 µM [1, 5] of the same compound?
A: Its inhibition at 60 µM is 74.6%.

Q: And the inhibition at 100 µM [1, 5]?
A: Its inhibition at 100 µM is 83%.

Q: What about the “Effect on poly(I)-induced SEAP activity (in words)” value [1] of the same compound?
A: The value was “significantly inhibited”.

Q: And the IC50 ([2]; Homo sapiens)?
A: The IC50 was less than 1000 nM.

Q: What about the “Effect on STAT3 luciferase activity (in words)” value [2] of the same compound?
A: Its value is “inhibited STAT3 luciferase activity in a concentration dependent manner”.

Q: And the IC50 [2]?
A: Its IC50 is 900 nM.

Q: What about the “Inhibition (%) of STAT3 luciferase activity” value ([2]; sample 1 μM) of the same compound?
A: The value was 51.2%.

Q: And the “Inhibition (%) of STAT3 luciferase activity” value ([2]; sample 3 μM)?
A: Its value is 84.3%.

Q: And the “Inhibition (%) of STAT3 luciferase activity” value ([2]; sample 6 μM)?
A: Its value is 95.1%.

Q: And the “Inhibition (%) of STAT3 luciferase activity” value ([2]; sample 10 μM)?
A: The value was 97.2%.

Q: And the “Inhibition (%) of STAT3 luciferase activity” value ([2]; sample 30 μM)?
A: Its value is 100%.

Q: And the inhibition at 10 µM [3, 6]?
A: Its inhibition at 10 µM is less than 0%.

Q: And the inhibition at 30 µM [3, 6]?
A: The inhibition at 30 µM was 9.28%.

Q: What about the inhibition at 60 µM [3, 6] of the same compound?
A: The inhibition at 60 µM was 47.2%.

Q: And the inhibition at 100 µM [3, 6]?
A: Its inhibition at 100 µM is 64.4%.

Q: And the “Effect on poly(I:C)-induced SEAP activity (in words)” value [3]?
A: Its value is “significantly inhibited”.

Q: What about the “IL-6-induced STAT3 phosphorylation” value (STAT3 phosphorylation) of the same compound?
A: Its value is “showed the inhibitory effects”.

Q: And the Osteoclast differentiation ([4]; 10 μM)?
A: Its Osteoclast differentiation is “remarkable effect”.

Q: And the “Osteoclast differentiation (number and size of TRAP-positive osteoclasts)” value [4]?
A: Its value is “remarkably inhibited”.

Q: What about the “Osteoclast differentiation (number and size of TRAP-positive osteoclasts)” value ([4]; listed as compound of Chemical Formula 1) of the same compound?
A: Its value is “reduced in a concentration-dependent manner”.

Q: Which inhibition at 30 µM [1, 7] does the source give for `C[C@@H]1O[C@@H](OC[C@H]2O[C@@H](Oc3c(-c4ccc(O)c(O)c4)oc4cc(O)cc(O)c4c3=O)[C@H](O)[C@@H](O)[C@@H]2O)[C@H](O)[C@H](O)[C@H]1O` [Rutin, rutin, reference compound] here?
A: The inhibition at 30 µM was less than 0%.

Q: What about the inhibition at 60 µM [1, 8] of the same compound?
A: Its inhibition at 60 µM is less than 0%.

Q: What about the inhibition at 30 µM [3, 9] of the same compound?
A: The inhibition at 30 µM was less than 0%.

Q: And the inhibition at 60 µM [3, 10]?
A: Its inhibition at 60 µM is less than 0%.

Q: Which results are given for `O=c1cc(-c2ccc(O)c(O)c2)oc2cc(O)cc(O)c12` [Luteolin, reference compound]?
A: inhibition at 30 µM [1, 7]: 79.2%; inhibition at 60 µM [1, 8]: 96.3%; inhibition at 30 µM [3, 9]: 47.7%; inhibition at 60 µM [3, 10]: 67.3%

Q: Which “Inhibition (%) of STAT3 luciferase activity” value ([2]; sample 100 μM) does the source give for `O=c1c(-c2ccc(O)cc2)coc2cc(O)cc(O)c12` [Genistein, reference compound] here?
A: The value was 95.2% and 95.1% and 95.4%.
